Test results taken from PubChem BioAssay (NCI).
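Cells were grown in 96-well plates and exposed to each compound for 48 hours at five concentrations; endpoints were interpolated linearly between bracketing concentrations, or set to the highest concentration if not reached. At the GI50, growth is halved. Definition used: TGI = concentration required for complete inhibition of growth.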

Key:
Experiment in all cases: NCI-60 cell line screen, 48 h
786-0 renal = tested on: 786-0 renal
DLD-1 colon = tested on: DLD-1 colon
LXFL 529 NSCLC = tested on: LXFL 529 NSCLC
M19-MEL melanoma = tested on: M19-MEL melanoma
SK-OV-3 ovarian = tested on: SK-OV-3 ovarian
XF 498 CNS = tested on: XF 498 CNS
DMS 114 small cell lung = tested on: DMS 114 small cell lung
BT-549 breast = tested on: BT-549 breast
MDA-MB-231 breast = tested on: MDA-MB-231 breast
PC-3 prostate = tested on: PC-3 prostate

Row | SMILES | TGI (786-0 renal) [µM] | TGI (DLD-1 colon) [µM] | TGI (LXFL 529 NSCLC) [µM] | TGI (M19-MEL melanoma) [µM] | TGI (SK-OV-3 ovarian) [µM] | TGI (XF 498 CNS) [µM] | TGI (DMS 114 small cell lung) [µM] | GI50 (786-0 renal) [µM] | GI50 (BT-549 breast) [µM] | TGI (BT-549 breast) [µM] | TGI (MDA-MB-231 breast) [µM] | GI50 (PC-3 prostate) [µM] | TGI (PC-3 prostate) [µM] | GI50 (SK-OV-3 ovarian) [µM]
1 | N#CC(C(=O)CCC(=O)Nc1cccc(C(F)(F)F)c1)c1ccc(Cl)cc1 (stereo unspecified) | > 100 | > 100 | > 100 | > 100 | > 100 | > 100 |  |  |  |  |  |  |  | 
2 | COc1cc(C2C(C(=O)Nc3cc(F)c(F)cc3F)=C(C)NC(C)=C2C(=O)Nc2cc(F)c(F)cc2F)ccc1O | > 100 | > 100 | > 100 | 77.3 |  | 33.1 | 41.8 |  |  |  |  |  |  | 
3 | Nc1nc(N)c2cc(CNc3ccc(C(=O)NC(CC(=O)O)C(=O)O)c(Cl)c3)ccc2n1 (stereo unspecified) | > 500 |  |  |  | > 500 |  | 0.0214 | < 0.01 | > 500 | > 500 | > 500 | < 0.01 | > 500 | 74.7
4 | CC(=O)OC1C2CCC1C1C2C2(Cl)C(Cl)=C(Cl)C1(Cl)C2(Cl)Cl (stereo unspecified) | 27.1 | 33.3 | 33.9 | 27.7 | 35.3 | 23.1 | 26.7 |  |  |  |  |  |  | 
5 | CC1=C(c2cc(C(=O)Nc3ccc(Cl)cc3)nc(=S)[nH]2)Sc2ccccc2N1 | > 100 | > 100 | > 100 | > 100 | > 100 | > 100 | > 100 |  |  |  |  |  |  | 
6 | COC(=O)/C(=C\c1ccc(N(CCC#N)CCC#N)cc1)NC(=O)c1cc([N+](=O)[O-])ccc1Cl | > 100 | > 100 | > 100 | > 100 | > 100 |  | > 100 |  |  |  |  |  |  | 
7 | Cc1cccc(C)c1NC(=O)C(=O)CC(=O)c1cccc([N+](=O)[O-])c1 | > 100 | > 100 | > 100 | > 100 |  | > 100 |  |  |  |  |  |  |  | 
8 | O=c1nc(-c2ccccc2)cc(-c2ccccc2O)[nH]1 | > 100 | > 100 | > 100 | > 100 | > 100 | > 100 | > 100 |  |  |  |  |  |  | 
9 | CC(C)(C)OC(=O)N1N=NC2C1C1CC(OCc3ccccc3)(OCc3ccccc3)C2O1 (stereo unspecified) | > 100 | > 100 | 35 | > 100 | > 100 | 30.3 | 40.6 |  |  |  |  |  |  | 
10 | CC(C(=O)n1c2ccccc2c2ccccc21)N(c1ccccc1)c1ccccc1 (stereo unspecified) | 30.2 | 43 | 27.9 | 32.5 | 36.2 |  | 32.5 |  |  |  |  |  |  | 
11 | Cc1cc(C(C)(C)C)cc(Cc2cc(C(C)(C)C)cc(Cc3cc(C(C)(C)C)cc(C)c3O)c2O)c1O | 18.6 | 18.5 | 20.5 | 11.1 | 27.9 | 4.13 | 12.1 |  |  |  |  |  |  | 
12 | CCOC(=O)Cn1c(=O)n(C)c(=O)c2c1ncn2Cc1ccccc1 | > 100 | > 100 | > 100 | > 100 | > 100 | > 100 | > 100 |  |  |  |  |  |  | 
